Experimental data reported in US9974760B2, “Compositions and methods for treating cancer” (Chemo-Enhanced LLC, priority 2011, dated 2018).

What was measured:
[1] = tested on: Panc-1 cells; assay: Cell death in Panc-1 pancreatic cancer cells; assay type: cell-based
Method: FIGS. 3A-3H show synergistic anti-tumor effects of C6-ceramide and gemcitabine in vivo and in vitro. SCID/Beige/Taconic nude male mice (22-25 g; 6-8 weeks old) were ear tagged and randomized into 4 different groups (Control, Ceramide, gemcitabine, Ceramide+gemcitabine) combining 5 mice each prior to inoculation subcutaneous (s.c.) with 2×10^6 L3.6 cells in a 0.1 ml volume into the internal surface of the right thigh. Treatment was started 4 days after L3.6 cell injection with thrice weekly (3×/wk) intraperitoneal (i.p.) injections of gemcitabine (two doses: 5.0 and 10.0 mg/ml) with or without C6-ceramide (10 mg/ml) for 2 weeks. Mouse survival (FIGS. 3A, 3B, and 3E) and tumor volume (in cm^3; FIGS. 3C and 3D) were recorded (FIG. 3E). […] Mitomycin C was always present in the media to prevent cell proliferation from occurring. The data represent the mean±SD of at least triplicate experiments. *P<0.05 versus group without C6-ceramide presents. The experiments were repeated at least three times and similar results were observed.
Cell viability was measured by the 3-[4m5-dimethylthylthiazol-2-y]-2.5 diphenyltetrazolium bromide (MTT) method, as described in Cao et al. (2009) Sci. Signal, 2:RA17. Briefly, the cells were collected and seeded in 96-well plate at a density of 2×10^5 cells/cm^2. Different seeding densities were optimized at the beginning of the experiments. […] The medium was subsequently aspirated from each well and 150 ul of DMSO (Sigma, St. Louis, Mo.) was added to dissolve formazan crystals and the absorbance of each well was obtained using a Dynatech MR5000 plate reader at a test wavelength of 490 nm with a reference wavelength of 630 nm.
The possible combination effect of C6-ceramide on gemcitabine-induced cytotoxicity (in vitro) and regression (in vivo) of the L3.6 pancreatic cancer cell was also tested according to the methods described in Examples 2 and 3. […] A synergistic anti-tumor effect of gemcitabine and C6-ceramide in multiple pancreatic cancer cells in vitro was also determined.

[2] = tested on: L3.6 pancreatic cancer cells; assay: Cell viability / cell death (MTT) in L3.6 pancreatic cancer cells; assay type: cell-based, human; conditions: gemcitabine 1.5 μg/ml
[3] = tested on: Gab1; assay: Gab1 activation in wildtype and Gab1 knockout MEFs; assay type: cell-based; conditions: wildtype vs Gab1 knockout MEFs
Description: One of the most studied scaffold proteins for AKT activation is Gab1. Physical association between p85 and Gab1 is crucial in mediating the PI3K/AKT signaling pathway induced by a variety of stimuli. […] It is believed that that Gab1 is a key adaptor for taxol and gemcitabine induced PI3K/AKT/mTOR activation and chemoresistance response. To confirm this rationale, wildtype and Gab1 knockout MEFs and Gab1 siRNA can be used to test taxol and gemcitabine induced PI3K/AKT/mTOR and cell death. Interaction between Gab1 and p85 after Taxol and Gemcitabine treatment can also be tested in L3.6 cells.

Row | Structure (SMILES) | sensitization to cetuximab ([1]; PANC-1, activating KRAS mutation) | cancer cell death ([1]; Panc-1, gemcitabine 1.5 μg/ml) | cancer cell death [2] | Gab1 activation [3]
1 | CCCCCCCCCCCCC/C=C/[C@@H](O)[C@H](CO)NC(=O)CCCCC [C6-ceramide, N-hexanoyl-D-sphingosine] | markedly sensitized | moderate effect | moderate effect | 
2 | CC(=O)O[C@H]1C(=O)[C@@]2(C)[C@H]([C@H](OC(=O)c3ccccc3)[C@]3(O)C[C@H](OC(=O)[C@H](O)[C@@H](NC(=O)c4ccccc4)c4ccccc4)C(C)=C1C3(C)C)[C@]1(OC(C)=O)CO[C@@H]1C[C@@H]2O [paclitaxel] |  |  |  | induces Gab1 activation in wildtype but not Gab1 knockout MEFs
